PMC5117135 (ACS Chemical Biology, 2016)

What was measured:
[1] = system: PqsA; details: read-out: Km as PqsA substrate; cited from earlier work
[2] = system: MvfR; details: binding to and activation of MvfR; cited from earlier work
[3] = system: HHQ and PQS quinolone production in P. aeruginosa strain PA14; experiment: Inhibition of HHQ and PQS quinolone production, LC-MS/MS quantitation; format: cell-based, Pseudomonas aeruginosa; details: dose and time course over 24 h
[4] = system: P. aeruginosa PA14; experiment: Compound accumulation, LC-MS/MS quantitation of lysate; format: cell-based, Pseudomonas aeruginosa; details: 1000 μM extracellular, 30 min

## Nc1ccccc1C(=O)O [anthranilate]
[1]
  Km: 8 µM

## O=C(O)c1ccccc1 [benzoate]
[1]
  Km: 150 µM

## CCCCCCCc1nc2ccccc2c(O)c1O [PQS, 3,4-dihydroxy-2-heptylquinoline]
[2]
  potency on MvfR relative to HHQ: 100 fold

## Nc1cccc(F)c1C(=O)O [6FABA, 6-Fluoroanthranilate]
[3]
  lowest concentration that inhibited or delayed quinolone production: 100 µM
[4]
  penetration relative to the extracellular concentration applied: 2–3%
[4]; PA14 in LB, OD600 ≈ 0.5, calculated based on CFU
  intracellular concentration: 20 to 30 µM
